In patent US20130317053A1, “EXTERNALLY-USED DRUG FOR TREATING SKIN DISORDER AND METHOD FOR PRODUCING SAME” (OSAKA UNIVERSITY, priority 2011, published 2013):

Experiments:
VEGF [1] = assay: inhibition of VEGF expression in human fibroblast; assay type: cell-based; conditions: 20 nM, 72 hours
Procedure: (§1) A cell of angiofibroma, a human fibroblast, and HaCat, each of which was isolated from a patient with tuberous sclerosis complex, were used. Isolation of the cell of angiofibroma was carried out by removing angiofibroma from a patient who wished the angiofibroma to be removed and then using the primary culturing method. […] HaCat was purchased from German Cancer Research Center (dkfz). The cells obtained from the respective patients were used with the patients' consent.
(§2) The cell of angiofibroma, the human fibroblast, and HaCat were each cultured with use of a DME culture medium at a temperature of 37° C. in a 5% CO2 environment. During the culture of these cells, sirolimus was added to each of the culture mediums so as to have a final concentration of 0 nM (that is, no sirolimus is added to a culture medium (a control)), 1 nM, 10 nM, or 20 nM. The cells were each incubated again at a temperature of 37° C. in a 5% CO2 environment, and a culture supernatant was collected […] after sirolimus was added. A concentration of VEGF in the collected culture supernatant was measured with use of a kit (Quantikine® Human VEGF manufactured by R&D SYSTEMS®) for detecting VEGF.

TYRP1 = assay: expression level of mRNA of TYRP1 in melanocytes (real-time RT-PCR); assay type: cell-based
Procedure: (§3) 1.4×10^5 melanocytes were inoculated in wells of 6-well culture plate, and a medium 254 (produced by KURABO […] LTD.; M254500) was added to the wells. Subsequently, the plate was incubated for 24 hours at a temperature of 37° C. in a 5% CO2 environment.
(§4) Sirolimus was added to the respective wells so as to have a final concentration of 0 nM (that is, no sirolimus is added to a culture medium), 1 nmol/L, 10 nmol/L, and 20 nmol/L, respectively. The plates were incubated for 24 hours or 48 hours at a temperature of 37° C. in a 5% CO2 environment.
(§5) From the wells thus incubated, the medium 254 was removed. Then, an operation of adding PBS to the wells and removing the PBS from the wells was carried out three times to wash the melanocytes with the PBS.
(§6) To the wells from which the PBS had been removed, 175 μL of an RNA lysis buffer was added. The RNA lysis buffer is attached to a kit of an SV Total RNA Solution System (manufactured by Promega Corporation; Z3105).
(§7) Melanocytes were peeled off the plate with use of a cell scraper.
(§8) The RNA lysis buffer containing melanocytes was collected into a 1.5 mL Eppendorf tube. Then, RNAs were extracted from the collected buffer.
(§9) Real-time RT-PCR was carried out with use of the RNAs to detect expression of mRNAs of MITF, mRNAs of TYR, mRNAs of TYRP1, and mRNAs of GAPDH. An expression level of the mRNAs of MITF, an expression level of the mRNAs of TYR, and an expression level of the mRNAs of TYRP1 were each calculated as a relative expression level with respect to an expression level of the mRNA of GAPD.
(§10) This experiment was carried out three times to calculate an average value and a standard deviation of relative expression levels of mRNAs of each of MITF, TYR, and TYRP1. Whether or not there was a statistically significant difference between test results obtained with use of the respective external medicines was checked by calculating a p value with use of a Student's t-test having no correspondence. In a case where the p value was less than 0.05, a statistically significant difference was recognized.
(§11) To detect expression of the mRNAs of MITF, TagMan® Gene Expression Assays (produced by Applied biosystems, Inc.; Hs00165156_m1) was used. To detect expression of the mRNAs of TYR, TagMan® Gene Expression Assays (produced by Applied biosystems, Inc.; Hs00165976_m1). To detect expression of the mRNAs of TYRP1, TagMan® Gene Expression Assays (produced by Applied biosystems, Inc.; Hs00167051_m1) was used. To detect expression of the mRNAs of GAPDH, TagMan® Gene Expression Assays (produced by Applied biosystems, Inc.; Hs99999905_m1) was used.

TYR = assay: expression level of mRNA of TYR in melanocytes (real-time RT-PCR); assay type: cell-based
Procedure: as §3, §4, §5, §6, §7, §8, §9, §10, §11

VEGF [2] = assay: inhibition of VEGF expression in cell of angiofibroma; assay type: cell-based, human
Procedure: as §1, §2

VEGF [3] = assay: inhibition of VEGF expression in HaCat; assay type: cell-based; conditions: 20 nM, 72 hours
Procedure: as §1, §2

MITF = assay: expression level of mRNA of MITF in melanocytes (real-time RT-PCR); assay type: cell-based
Procedure: as §3, §4, §5, §6, §7, §8, §9, §10, §11

## CO[C@H]1C[C@@H]2CC[C@@H](C)[C@@](O)(O2)C(=O)C(=O)N2CCCC[C@H]2C(=O)O[C@H]([C@H](C)C[C@@H]2CC[C@@H](O)[C@H](OC)C2)CC(=O)[C@H](C)/C=C(\C)[C@@H](O)[C@@H](OC)C(=O)[C@H](C)C[C@H](C)/C=C/C=C/C=C/1C [sirolimus]
VEGF [1]
  concentration of VEGF decreased to (% of untreated): about 30%
  rate of decrease in concentration of VEGF (ratio treated/untreated): 0.336
VEGF [1]; control 1492.7
  concentration of VEGF in culture supernatant: 501.3 pg/mL
TYRP1; 1 nM, 24 hours, untreated 24 h 1.031±0.027
  relative expression levels of TYRP: 1.333±0.055
TYRP1; 1 nM, 48 hours, untreated 48 h 1.338±0.029
  relative expression levels of TYRP: 1.450±0.028
TYRP1; 20 nM, 24 hours, untreated 24 h 1.031±0.027
  relative expression levels of TYRP: 1.652±0.031
TYRP1; 20 nM, 48 hours, untreated 48 h 1.338±0.029
  relative expression levels of TYRP: 1.514±0.124
TYR; 1 nM, 24 hours, untreated 24 h 0.640±0.036
  relative expression levels of TYR: 0.820±0.047
TYR; 1 nM, 48 hours, untreated 48 h 0.771±0.009
  relative expression levels of TYR: 0.760±0.044
TYR; 20 nM, 24 hours, untreated 24 h 0.640±0.036
  relative expression levels of TYR: 0.921±0.029
TYR; 20 nM, 48 hours, untreated 48 h 0.771±0.009
  relative expression levels of TYR: 0.858±0.022
VEGF [2]; 1 nM, 48 hours, untreated 260.2857
  concentration of VEGF in culture supernatant: 113.1428 pg/mL
VEGF [2]; 10 nM, 48 hours, untreated 260.2857
  concentration of VEGF in culture supernatant: 92.4285 pg/mL
VEGF [2]; 20 nM, 72 hours
  concentration of VEGF decreased to (% of untreated): about 20%
  rate of decrease in concentration of VEGF (ratio treated/untreated): 0.196
VEGF [2]; 20 nM, 72 hours, control 858.4
  concentration of VEGF in culture supernatant: 168 pg/mL
VEGF [3]
  concentration of VEGF decreased to (% of untreated): about 40%
  rate of decrease in concentration of VEGF (ratio treated/untreated): 0.405
VEGF [3]; control 1849.9
  concentration of VEGF in culture supernatant: 749.9 pg/mL
MITF; 1 nM, 24 hours, relative to GAPDH, untreated 24 h 100.00±3.37
  relative expression levels of MITF: 152.48±3.47
MITF; 1 nM, 48 hours, untreated 48 h 107.95±1.38
  relative expression levels of MITF: 129.41±3.43
MITF; 20 nM, 24 hours, untreated 24 h 100.00±3.37
  relative expression levels of MITF: 152.18±14.75
MITF; 20 nM, 48 hours, untreated 48 h 107.95±1.38
  relative expression levels of MITF: 141.56±3.52
